We go through 3 molecules from patent publication US10865203B2, “Ligands selective to alpha 6 subunit-containing GABAA receptors and their methods of use” (UWM Research Foundation, Inc., priority 2015, dated 2020).

SMILES strings stand for the structures.

One test has as its system IoN-CCl Wistar rats. As to the kind of experiment: IoN-CCl neuropathic pain model, von Frey filaments. It is filed as in vivo, rat. On the procedure:
Chronic constriction injury (CCl) is a common neuropathic pain model. The unilateral ligature of the infraorbital nerve (IoN) in rats, as an animal model of peripheral neuropathic pain, and more specifically, trigeminal neuralgia and trigeminal neuropathy, was performed as described by Desuere and Hans (Deseure et al. J. Vis. Exp. 2015, 103, e53167). Wistar rats (46 in total) were randomly assigned to one of four experimental groups and then were behaviorally tested in a blinded manner. For studying the effects of subchronic treatment with the nanoemulsion formulation of DK-I-56-1 in IoN-CCl rats, DK-I-56-1 (10 mg/kg i.p.) or its vehicle (placebo nanoemulsion i.p.) were injected daily for 14 consecutive days after surgery. Sham-operated rats were treated in parallel. By a procedure slightly modified from Djordjevic et al. (Int. J. Pharm. 2015, 493, 40-54), biocompatible nanoemulsions were prepared by high pressure homogenization at 50° C. […] First, the response to the application of a graded series of three von Frey filaments onto ipsilateral vibrissal pad was measured on pre-operative days −3 and −1 and post-operative days 7, 14, 21, and 28. […] The other parameter, face grooming during body grooming, was manually assessed during 10 min of recording on pre-operative day −2 and post-operative days 2, 4, 8, and 15 (i.e. after 1, 3, 7, and 14 applications of treatment). […]

The target of a further test is T1, α1,4,6β3δ receptors (Rattus norvegicus, UniProt P30191+P63079).
T1 construct: expressed in transfected cells; host or cells: Xenopus laevis oocytes injected with subunit mRNA (3:1:5)
The experiment in a line: Electrophysiology in Xenopus oocytes, delta-containing receptors. The test is classed as cell-based. Particulars: measured at EC20. Here is the method:
Mature female Xenopus laevis (Nasco, Fort Atkinson, Wis., USA) were anaesthetized in a bath of ice-cold 0.17% Tricain (Ethyl-m-aminobenzoat, Sigma-Aldrich, St. Louis, Mo., USA) before decapitation and transfer of the frog's ovary to ND96 medium (96 mM NaCl, 2 mM KCl, 1 mM MgCl2, 5 mM HEPES; pH 7.5). Following incubation in 1 mg/mL collagenase (Sigma-Aldrich, St. Louis, Mo., USA) for 30 min, stage 5 to 6 oocytes were singled out of the ovary and defolliculated using a platinum wire loop. Oocytes were stored and incubated at 18° C. in NDE medium (96 mM NaCl, 2 mM KCl, 1 mM MgCl2, 5 mM HEPES, 1.8 mM CaCl2; pH 7.5) that was supplemented with 100 U per mL-1 penicillin, 100 μg per mL-1 streptomycin and 2.5 mM pyruvate. Oocytes were injected with an aqueous solution of mRNA. A total of 2.5 ng of mRNA per oocyte was injected. Subunit ratio was 1:1:5 for αxβγ2 (x=1, 2, 3, 5) and 3:1:5 for α4/6β3γ2 and αβδ receptors. Injected oocytes were incubated for at least 36 h before electrophysiological recordings. Oocytes were placed on a nylon-grid in a bath of NDE medium. For current measurements, the oocytes were impaled with two microelectrodes (2-3MΩ), which were filled with 2 M KCl. The oocytes were constantly washed by a flow of 6 mL per min-1 NDE that could be switched to NDE containing GABA and/or drugs. […] All recordings were performed at room temperature at a holding potential of −60 mV using a Warner OC-725C TEV (Warner Instrument, Hamden, Conn., USA) or a Dagan CA-1B Oocyte Clamp or a Dagan TEV-200A TEV (Dagan Corporation, Mineapolis, Minn., USA). Data were digitized using a Digidata 1322A or 1550 data acquisition system (Axon Instruments, Union City, Calif., USA), recorded using Clampex 10.5 software (Molecular Devices, Sunnyvale, Calif., USA), and analyzed using Clampfit 10.5 and GraphPad Prism 6.0 (La Jolla, Calif., USA) software. Concentration-response data were fitted using the Hill equation. Data are given as mean±SEM from at least three oocytes of two batches.
For selected test compounds full dose response curves were recorded in α1-6β3γ2 receptors. For selected compounds, dose response curves in additional receptor subtypes (α1, 4, 6β3δ, α6β1, 2γ2, α1-6β3) were also obtained. For a wider panel of compounds, a two point screening pharmacology was obtained at 1 and 10 μM compound concentrations.

The subject of another test is mice, elevated plus maze. The experiment in a line: Elevated plus maze (EPM) test. The test is classed as in vivo, mouse. Conditions: 3 mg/kg or 10 mg/kg i.p., 10 min before the tests. On the procedure:
The epm test was conducted in a plexiglas maze apparatus (San Diego Instruments, San Diego, Calif.), consisting of a central platform (5×5 cm) with four arms (30×5 cm); two open and two closed arms with 25 cm-high sidewalls. The maze is elevated 38.5 cm from the room's floor. The mouse was placed at the central platform of the maze facing one of open arms and its behaviors in the maze were video-recorded and analyzed every 5 min-test session by the ethovision video tracking system (noldus information technology, wageningen, netherlands). The time spent for each mouse in the open or closed arm or the central platform as well as the distances traveled in the open or closed arm were measured. The degree of anxiety was accessed by the ratio of the time spent or the distance traveled in two open arms in a 5 min-test session.

T1 sequence (P30191 20-453): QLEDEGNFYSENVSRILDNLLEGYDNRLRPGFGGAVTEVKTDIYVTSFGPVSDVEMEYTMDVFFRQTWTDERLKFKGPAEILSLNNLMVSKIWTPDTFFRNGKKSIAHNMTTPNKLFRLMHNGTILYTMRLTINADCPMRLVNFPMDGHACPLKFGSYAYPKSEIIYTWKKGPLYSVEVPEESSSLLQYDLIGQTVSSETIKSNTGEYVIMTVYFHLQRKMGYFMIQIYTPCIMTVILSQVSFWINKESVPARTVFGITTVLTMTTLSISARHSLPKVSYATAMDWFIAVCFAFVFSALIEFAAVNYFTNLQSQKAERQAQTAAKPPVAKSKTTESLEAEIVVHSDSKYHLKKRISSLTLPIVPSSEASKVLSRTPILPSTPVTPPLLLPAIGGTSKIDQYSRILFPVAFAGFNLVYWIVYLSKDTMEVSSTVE
T1 sequence (P63079 26-473): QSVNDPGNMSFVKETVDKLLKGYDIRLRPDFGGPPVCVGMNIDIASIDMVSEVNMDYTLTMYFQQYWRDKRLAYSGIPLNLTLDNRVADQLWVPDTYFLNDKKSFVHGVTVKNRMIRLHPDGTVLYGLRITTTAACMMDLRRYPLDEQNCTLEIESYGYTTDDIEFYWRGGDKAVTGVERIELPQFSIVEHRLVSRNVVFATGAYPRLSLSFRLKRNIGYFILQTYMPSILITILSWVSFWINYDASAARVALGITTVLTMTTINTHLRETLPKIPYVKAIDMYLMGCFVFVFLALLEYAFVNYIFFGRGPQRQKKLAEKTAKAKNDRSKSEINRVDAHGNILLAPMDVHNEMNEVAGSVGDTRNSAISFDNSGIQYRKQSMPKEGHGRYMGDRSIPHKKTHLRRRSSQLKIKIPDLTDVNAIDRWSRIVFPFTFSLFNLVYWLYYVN
T1 sequence (P18506 25-449 partner): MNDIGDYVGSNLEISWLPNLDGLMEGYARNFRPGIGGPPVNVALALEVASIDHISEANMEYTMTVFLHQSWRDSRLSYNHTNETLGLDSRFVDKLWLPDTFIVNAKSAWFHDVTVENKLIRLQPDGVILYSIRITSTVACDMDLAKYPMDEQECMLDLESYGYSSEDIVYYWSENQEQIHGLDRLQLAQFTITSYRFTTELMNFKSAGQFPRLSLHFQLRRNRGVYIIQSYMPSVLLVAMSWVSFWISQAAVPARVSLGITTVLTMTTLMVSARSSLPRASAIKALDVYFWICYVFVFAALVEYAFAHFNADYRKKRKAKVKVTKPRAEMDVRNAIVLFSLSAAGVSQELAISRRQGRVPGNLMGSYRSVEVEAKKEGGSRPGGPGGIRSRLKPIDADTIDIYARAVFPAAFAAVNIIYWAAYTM

On to `[2H]C([2H])([2H])Oc1ccc(-n2nc3c4ccc(OC)cc4[nH]cc-3c2=O)cc1` [DK-I-56-1, 7-Methoxy-2-(4-methoxy-d3-phenyl)-2,5-dihydro-3H-pyrazolo[4,3-c]quinolin-3-one], for which the “anti-allodynic effect, response score to von Frey filaments, post-operative days 14 and 21” value in the test on IoN-CCl Wistar rats (10 mg/kg i.p. nanoemulsion daily for 14 days after surgery) is reported as “statistically significant”. Moreover, in the test on IoN-CCl Wistar rats (14 days after the last dose), the “anti-allodynic effect, post-operative day 28” value is “disappeared”. `[2H]C([2H])([2H])Oc1ccc2c3nn(-c4ccc(OC)nc4)c(=O)c-3c[nH]c2c1` [DK-I-86-1, 7-Methoxy-d3-2-(6-methoxypyridin-3-yl)-2,5-dihydro-3H-pyrazolo[4,3-c]quinolin-3-one]: the “Receptor potentiation in the α6β3δ receptor” value on α1,4,6β3δ receptors was “modulated”. `COc1ccc(-n2nc3c4ccc(OC)cc4[nH]cc-3c2=O)cc1` [Compound 6, 7-Methoxy-2-(4-methoxyphenyl)-2,5-dihydro-3H-pyrazolo[4,3-c]quinolin-3-one]: the anxiolytic activity entry with mice, elevated plus maze is recorded as “neither displayed any significant”.
